Data on two compounds can be found in ChEMBL document CHEMBL1240357, “Method for screening compounds that influence virulence gene expression in Staphylococcus aureus” (Antimicrob Agents Chemother, 2010).

Common to all, as to assay type: functional, organism-based
Assay [1] has as its system Staphylococcus aureus. The assay can be described thus: Induction of hla virulent gene expression in Staphylococcus aureus PC322 containing hla::lacZ assessed as color chage at 5 ug/ml at 37 degC in presence of chromogenic beta-galactosidase substrate.
In assay [2] the test system is Staphylococcus aureus. The assay can be described thus: Induction of spa virulent gene expression in Staphylococcus aureus PC203 containing spa::lacZ assessed as color chage at 5 ug/ml at 37 degC in presence of chromogenic beta-galactosidase substrate.
The subject of assay [3] is Staphylococcus aureus. The assay can be described thus: Induction of spa virulent gene expression in Staphylococcus aureus PC203 containing spa::lacZ assessed as color chage at 5 ug/ml at 37 degC in presence of chromogenic beta-galactosidase substrate and 1 to 50 % glucose solution.
The subject of assay [4] is Staphylococcus aureus. Put plainly: Induction of hla virulent gene expression in Staphylococcus aureus PC322 containing hla::lacZ assessed as color chage at 5 ug/ml at 37 degC in presence of chromogenic beta-galactosidase substrate and 1 to 50 % glucose solution.
Assay [5] relates to Staphylococcus aureus. The assay can be described thus: Induction of spa virulent gene expression in Staphylococcus aureus PC203 containing spa::lacZ assessed as color chage at 150 ug/ml at 37 degC in presence of chromogenic beta-galactosidase substrate.
The test system of assay [6] is Staphylococcus aureus. The assay can be described thus: Induction of hla virulent gene expression in Staphylococcus aureus PC322 containing hla::lacZ assessed as color chage at 150 ug/ml at 37 degC in presence of chromogenic beta-galactosidase substrate.
Assay [7] relates to Staphylococcus aureus. The assay can be described thus: Induction of hla virulent gene expression in Staphylococcus aureus PC322 containing hla::lacZ assessed as color chage at 150 ug/ml at 37 degC in presence of chromogenic beta-galactosidase substrate and 1 to 50 % glucose solution.
The subject of assay [8] is Staphylococcus aureus. Put plainly: Induction of spa virulent gene expression in Staphylococcus aureus PC203 containing spa::lacZ assessed as color chage at 150 ug/ml at 37 degC in presence of chromogenic beta-galactosidase substrate and 1 to 50 % glucose solution.

Each structure is given as a SMILES string. The source made the active and inactive calls. The calls are words filed in the database; no cut-off is given here.

As to `CC[C@H]1OC(=O)[C@H](C)[C@@H](O[C@H]2C[C@@](C)(OC)[C@@H](O)[C@H](C)O2)[C@H](C)[C@@H](O[C@@H]2O[C@H](C)C[C@H](N(C)C)[C@H]2O)[C@](C)(O)C[C@@H](C)C(=O)[C@H](C)[C@@H](O)[C@]1(C)O`, the outcome in the assay on Staphylococcus aureus [1] and with Staphylococcus aureus [2] was Active. The result in the assay on Staphylococcus aureus [3] and with Staphylococcus aureus [4] was inactive.

Take `OC[C@H]1O[C@@H](Oc2c[nH]c3ccc(Br)c(Cl)c23)[C@H](O)[C@@H](O)[C@H]1O`: the outcome in the assay on Staphylococcus aureus [5] and in the assay with Staphylococcus aureus [6] was Active. Moreover, the result in the assay with Staphylococcus aureus [7] and in the assay on Staphylococcus aureus [8] was inactive.
